Assay results from US20190330224A1, “ACC INHIBITORS AND USES THEREOF” (Gilead Apollo, LLC, priority 2015, published 2019).

Target: Human ACC2 (Homo sapiens, UniProt O00763)
Assay: In vitro ACC2 inhibition assay (ADP-Glo), human ACC2
Format: biochemical
Conditions: 5 nM ACC2, 20 μM ATP, 20 μM acetyl-CoA

Chain of Human ACC2 (O00763 whole entry): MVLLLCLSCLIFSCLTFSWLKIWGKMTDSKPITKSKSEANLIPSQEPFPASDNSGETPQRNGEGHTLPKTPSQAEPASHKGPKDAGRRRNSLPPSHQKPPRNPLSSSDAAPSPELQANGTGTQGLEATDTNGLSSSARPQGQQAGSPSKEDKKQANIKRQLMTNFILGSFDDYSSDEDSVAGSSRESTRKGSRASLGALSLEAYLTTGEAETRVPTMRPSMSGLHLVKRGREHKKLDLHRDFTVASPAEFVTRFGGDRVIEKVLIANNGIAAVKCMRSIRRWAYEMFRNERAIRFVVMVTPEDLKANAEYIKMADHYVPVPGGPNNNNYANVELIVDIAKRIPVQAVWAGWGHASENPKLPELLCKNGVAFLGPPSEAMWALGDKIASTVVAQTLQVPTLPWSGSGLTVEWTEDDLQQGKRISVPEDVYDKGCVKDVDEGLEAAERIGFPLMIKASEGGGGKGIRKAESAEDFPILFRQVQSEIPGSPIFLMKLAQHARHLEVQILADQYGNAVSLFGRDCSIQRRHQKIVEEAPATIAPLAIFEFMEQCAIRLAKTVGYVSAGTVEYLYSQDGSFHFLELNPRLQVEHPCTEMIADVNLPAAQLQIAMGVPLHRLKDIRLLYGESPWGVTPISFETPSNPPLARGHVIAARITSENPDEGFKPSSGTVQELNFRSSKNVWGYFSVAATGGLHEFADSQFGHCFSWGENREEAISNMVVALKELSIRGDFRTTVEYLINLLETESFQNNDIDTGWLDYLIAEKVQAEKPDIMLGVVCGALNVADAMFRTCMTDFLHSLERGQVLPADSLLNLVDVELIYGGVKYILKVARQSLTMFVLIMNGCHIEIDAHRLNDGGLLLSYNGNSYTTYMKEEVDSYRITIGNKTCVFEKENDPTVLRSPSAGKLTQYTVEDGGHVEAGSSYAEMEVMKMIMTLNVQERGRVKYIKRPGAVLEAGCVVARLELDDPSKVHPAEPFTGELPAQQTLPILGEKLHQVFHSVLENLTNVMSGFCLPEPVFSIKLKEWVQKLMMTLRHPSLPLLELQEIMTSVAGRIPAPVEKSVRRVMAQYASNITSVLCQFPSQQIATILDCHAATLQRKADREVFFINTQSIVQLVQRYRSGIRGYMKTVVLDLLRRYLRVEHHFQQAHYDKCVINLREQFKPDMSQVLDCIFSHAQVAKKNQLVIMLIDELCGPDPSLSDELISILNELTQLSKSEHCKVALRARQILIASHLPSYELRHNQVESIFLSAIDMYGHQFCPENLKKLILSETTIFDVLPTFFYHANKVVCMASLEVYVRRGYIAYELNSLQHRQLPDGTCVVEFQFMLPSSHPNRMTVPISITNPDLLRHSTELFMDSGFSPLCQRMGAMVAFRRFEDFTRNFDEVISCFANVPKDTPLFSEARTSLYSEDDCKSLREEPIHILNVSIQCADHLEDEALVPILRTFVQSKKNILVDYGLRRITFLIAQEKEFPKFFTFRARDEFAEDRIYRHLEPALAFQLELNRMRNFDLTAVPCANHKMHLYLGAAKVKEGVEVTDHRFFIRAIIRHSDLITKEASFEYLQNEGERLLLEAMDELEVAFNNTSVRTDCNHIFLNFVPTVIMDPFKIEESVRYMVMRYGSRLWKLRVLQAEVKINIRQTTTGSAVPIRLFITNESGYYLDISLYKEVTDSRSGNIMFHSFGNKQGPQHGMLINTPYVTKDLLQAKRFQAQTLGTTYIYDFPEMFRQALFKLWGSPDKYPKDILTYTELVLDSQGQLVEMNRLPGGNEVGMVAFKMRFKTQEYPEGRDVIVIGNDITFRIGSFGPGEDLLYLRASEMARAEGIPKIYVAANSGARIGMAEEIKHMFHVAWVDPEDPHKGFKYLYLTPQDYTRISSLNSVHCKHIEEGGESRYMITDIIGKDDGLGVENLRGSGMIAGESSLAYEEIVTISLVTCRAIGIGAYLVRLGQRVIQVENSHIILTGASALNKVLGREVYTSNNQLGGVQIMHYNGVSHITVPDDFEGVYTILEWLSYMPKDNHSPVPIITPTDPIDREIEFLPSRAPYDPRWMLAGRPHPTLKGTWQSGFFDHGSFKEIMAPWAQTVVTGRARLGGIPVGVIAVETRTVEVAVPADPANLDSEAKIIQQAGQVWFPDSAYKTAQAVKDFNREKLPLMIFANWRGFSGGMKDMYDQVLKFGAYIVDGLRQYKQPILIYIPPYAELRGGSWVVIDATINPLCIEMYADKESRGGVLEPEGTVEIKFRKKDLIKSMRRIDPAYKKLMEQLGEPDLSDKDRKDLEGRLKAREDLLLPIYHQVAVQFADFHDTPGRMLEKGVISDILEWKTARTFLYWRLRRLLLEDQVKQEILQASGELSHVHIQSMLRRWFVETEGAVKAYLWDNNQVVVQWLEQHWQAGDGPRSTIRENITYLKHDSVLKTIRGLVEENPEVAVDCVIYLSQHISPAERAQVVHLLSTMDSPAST

| IC50 [nM] | Compound |
| --- | --- |
| 2 to 10 | COc1ccc(F)cc1[C@H](Cn1c(=O)n(C2CCN(C(C)C)C2=O)c(=O)c2c(C)c(-n3nccn3)sc21)OCCO (stereo partly drawn) [Compound I-8, 1-((R)-2-(5-fluoro-2-methoxyphenyl)-2-(2-hydroxyethoxy)ethyl)-3-(1-isopropyl-2-oxopyrrolidin-3-yl)-5-methyl-6-(2H-1,2,3-triazol-2-yl)thieno[2,3-d]pyrimidine-2,4(1H,3H)-dione] |
| 2 to 10 | COc1ccc(F)cc1[C@H](Cn1c(=O)n(C2CCNC2=O)c(=O)c2c(C)c(-n3nccn3)sc21)OC1CCOCC1 (stereo partly drawn) [Compound I-9, 1-((R)-2-(5-fluoro-2-methoxyphenyl)-2-((tetrahydro-2H-pyran-4-yl)oxy)ethyl)-5-methyl-3-(2-oxopyrrolidin-3-yl)-6-(22H-1,2,3-triazol-2-yl)thieno[2,3-d]pyrimidine-2,4(1H,3H)-dione] |
| 10 to 100 | COc1ccc(F)cc1[C@H](Cn1c(=O)n([C@H]2CCCN(C(C)C)C2=O)c(=O)c2c(C)c(-n3nccn3)sc21)OC1CCOCC1 [Compound I-76, 1-((R)-2-(5-fluoro-2-methoxyphenyl)-2-((tetrahydro-2H-pyran-4-yl)oxy)ethyl)-3-((S)-1-isopropyl-2-oxopiperidin-3-yl)-5-methyl-6-(2H-1,2,3-triazol-2-yl)thieno[2,3-d]pyrimidine-2,4(1H,3H)-dione] |
| 2 to 10 | COc1ccc(F)cc1[C@H](Cn1c(=O)n([C@@H]2CCCN(C(C)C)C2=O)c(=O)c2c(C)c(-n3nccn3)sc21)OC1CCOCC1 [Compound I-77, 1-((R)-2-(5-fluoro-2-methoxyphenyl)-2-((tetrahydro-2H-pyran-4-yl)oxy)ethyl)-3-((R)-1-isopropyl-2-oxopiperidin-3-yl)-5-methyl-6-(2H-1,2,3-triazol-2-yl)thieno[2,3-d]pyrimidine-2,4(1H,3H)-dione] |
| > 1000 | COc1ccc(F)cc1[C@H](Cn1c(=O)n([C@]2(C)CCNC2=O)c(=O)c2c(C)c(-n3nccn3)sc21)OCCO [Compound I-144, 1-((R)-2-(5-fluoro-2-methoxyphenyl)-2-(2-hydroxyethoxy)ethyl)-5-methyl-3-((R)-3-methyl-2-oxopyrrolidin-3-yl)-6-(2H-1,2,3-triazol-2-yl)thieno[2,3-d]pyrimidine-2,4(1H,3H)-dione] |
| > 1000 | COc1ccc(F)cc1[C@H](Cn1c(=O)n([C@@]2(C)CCNC2=O)c(=O)c2c(C)c(-n3nccn3)sc21)OCCO [Compound I-145, 1-((R)-2-(5-fluoro-2-methoxyphenyl)-2-(2-hydroxy-ethoxy)ethyl)-5-methyl-3-((S)-3-methyl-2-oxopyrrolidin-3-yl)-6-(2H-1,2,3-triazol-2-yl)thieno[2,3-d]pyrimidine-2,4(1H,3H)-dione] |
| > 1000 | COc1ccc(F)cc1[C@H](Cn1c(=O)n([C@]2(C)CCN(C)C2=O)c(=O)c2c(C)c(-n3nccn3)sc21)OCCO [Compound I-147, 3-((R)-1,3-dimethyl-2-oxopyrrolidin-3-yl)-1-((R)-2-(5-fluoro-2-methoxyphenyl)-2-(2-hydroxyethoxy)ethyl)-5-methyl-6-(2H-1,2,3-triazol-2-yl)thieno[2,3-d]pyrimidine-2,4(1H,3H)-dione] |
| > 1000 | COc1ccc(F)cc1[C@H](Cn1c(=O)n([C@@]2(C)CCN(C)C2=O)c(=O)c2c(C)c(-n3nccn3)sc21)OCCO [Compound I-149, 3-((S)-1,3-dimethyl-2-oxopyrrolidin-3-yl)-1-((R)-2-(5-fluoro-2-methoxyphenyl)-2-(2-hydroxyethoxy)ethyl)-5-methyl-6-(2H-1,2,3-triazol-2-yl)thieno[2,3-d]pyrimidine-2,4(1H,3H)-dione] |
